Reference: PMC8037418, “Outlining In Vitro and In Silico Cholinesterase Inhibitory Activity of Twenty-Four Natural Products of Various Chemical Classes: Smilagenin, Kokusaginine, and Methyl Rosmarinate as Emboldening Inhibitors” (Molecules, 2021)
≈ marks a conversion by molar mass, not a printed value. Where two headings read alike, the source gives them in different places.

Columns and labels:
AChE [1] = molecular target: T1, AChE (Homo sapiens, UniProt P22303); assay: biochemical; conditions: for inhibition at 100 µg/mL: read-out: ChE Inhibition (Inhibition % ± S.D. at 100 µg/mL) AChE
Method: (§1) Inhibition of AChE and BChE was determined by Ellman’s method with slight modifications. To the reaction mixture, 140 µL of […] sodium phosphate buffer (pH 8), 20 µL of DTNB, 20 µL of enzyme (either AChE or BChE) and 20 µL of the samples to be tested was added later incubated for 15 min at 25 °C. About 10 µL of […] or butyrylthiocholine chloride which act as substrates to react with DTNB forming 5-thio-2-nitrobenzoate anion, that formed a yellow-colored complex, was added into the incubated sample. The absorbance is measured at 417 nm using a 96-well ELISA microplate reader (VersaMax, Molecular Devices, San Jose, CA, USA) Galanthamine was used the reference drug.
(§2) The measurements and calculations were evaluated by using Softmax PRO 4.3.2.LS software. Percentage of inhibition of AChE/BChE/TYR was determined by comparison of rates of reaction of test samples relative to blank samples. Extent of the enzymatic reaction was calculated based on the following equation: I% = (C-T)/C × 100, where I% is the activity of the enzyme as percent inhibition. E value expresses the effect of the test sample or the positive control on AChE/BChE/TYR enzyme activity articulated as the percentage of the remaining activity in the presence of test sample or positive control. C value is the absorbance of the control solvent (blank) in the presence of enzyme, where T is the absorbance of the tested sample (plant extract or positive control in the solvent) in the presence of enzyme.

BChE [2] = molecular target: T2, BChE (Homo sapiens, UniProt P06276); assay: Microtiter (Ellman) assay for BChE inhibition; assay type: biochemical; conditions: for inhibition at 100 µg/mL: read-out: ChE Inhibition (Inhibition % ± S.D. at 100 µg/mL) BChE
Method: as §1, §2

[3] = tested on: AChE of electric eel origin; conditions: cited from earlier work
AChE [4] = molecular target: T1, AChE; conditions: cited from earlier work
BChE [5] = molecular target: T2, BChE; conditions: cited from earlier work
[6] = at 100 µg/mL, n: 3, '-' = No inhibition
[7] = at 100 μg/mL, from Verbascum xanthophoeniceum and V. mucronatum

T1 sequence (P22303 32-614): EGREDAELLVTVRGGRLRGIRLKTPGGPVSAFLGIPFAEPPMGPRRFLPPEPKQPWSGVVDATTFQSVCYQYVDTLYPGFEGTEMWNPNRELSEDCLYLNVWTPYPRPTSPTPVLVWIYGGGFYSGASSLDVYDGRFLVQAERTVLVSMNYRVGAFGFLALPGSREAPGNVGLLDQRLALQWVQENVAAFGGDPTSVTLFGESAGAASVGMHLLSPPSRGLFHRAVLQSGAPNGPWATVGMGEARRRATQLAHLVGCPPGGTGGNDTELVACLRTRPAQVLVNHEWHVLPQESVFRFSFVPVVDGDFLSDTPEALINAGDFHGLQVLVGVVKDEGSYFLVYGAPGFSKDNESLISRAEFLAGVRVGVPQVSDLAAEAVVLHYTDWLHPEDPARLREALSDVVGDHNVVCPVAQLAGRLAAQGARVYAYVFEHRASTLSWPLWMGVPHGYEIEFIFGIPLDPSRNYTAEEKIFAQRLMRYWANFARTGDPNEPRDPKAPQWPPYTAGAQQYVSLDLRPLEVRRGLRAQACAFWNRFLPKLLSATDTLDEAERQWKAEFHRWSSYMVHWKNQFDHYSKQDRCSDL
T2 sequence (P06276 29-602): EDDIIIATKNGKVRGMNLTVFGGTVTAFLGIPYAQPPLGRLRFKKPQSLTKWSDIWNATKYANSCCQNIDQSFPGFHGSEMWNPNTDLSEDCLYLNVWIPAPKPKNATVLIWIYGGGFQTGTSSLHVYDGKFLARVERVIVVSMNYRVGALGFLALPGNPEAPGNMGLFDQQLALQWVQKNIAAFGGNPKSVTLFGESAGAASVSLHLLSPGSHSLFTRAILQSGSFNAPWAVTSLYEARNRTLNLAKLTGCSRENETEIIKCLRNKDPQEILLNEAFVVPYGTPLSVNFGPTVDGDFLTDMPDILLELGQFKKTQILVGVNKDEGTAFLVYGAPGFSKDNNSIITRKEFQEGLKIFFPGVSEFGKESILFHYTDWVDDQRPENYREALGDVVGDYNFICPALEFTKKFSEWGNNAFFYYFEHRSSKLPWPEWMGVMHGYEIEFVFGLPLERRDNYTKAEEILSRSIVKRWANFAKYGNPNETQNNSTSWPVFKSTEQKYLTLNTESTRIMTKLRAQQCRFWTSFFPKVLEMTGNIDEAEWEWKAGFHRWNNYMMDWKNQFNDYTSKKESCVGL

Molecule	inhibition at 100 µg/mL (AChE [1]; [6]) [%]	inhibition at 100 µg/mL (BChE [2]) [%]	other results
COc1cc(C=CC(=O)OC2C(COC3OCC(O)(CO)C3O)OC(OCCc3ccc(O)c(O)c3)C(O)C2OC2OC(C)C(O)C(O)C2O)ccc1O (stereo not drawn) [Alyssonoside]	< 0		inhibition at 100 µg/mL (BChE [2]; [6]): 13 ± 2.07%
CC(C)(O)[C@@H]1CC[C@](C)([C@H]2[C@@H](O)C[C@@]3(C)[C@@H]4C[C@H](O[C@@H]5O[C@H](CO)[C@@H](O)[C@H](O)[C@H]5O)[C@H]5C(C)(C)[C@@H](O[C@@H]6OC[C@@H](O)[C@H](O)[C@H]6O)CC[C@@]56C[C@@]46CC[C@]23C)O1 [Astragaloside IV]	4.8 ± 0.05	6.62 ± 2.72	
CC(=O)OC1C(O)COC(OC2CCC34CC35CCC3(C)C(C6(C)CCC(C(C)(C)O)O6)C(O)CC3(C)C5CC(OC3OC(CO)C(O)C(O)C3O)C4C2(C)C)C1OC(C)=O (stereo not drawn) [Astragaloside I]	< 0	8.38 ± 1.28	
CC(C)(O)[C@@H]1CC[C@](C)([C@H]2[C@@H](O)C[C@@]3(C)[C@@H]4C[C@H](O[C@@H]5O[C@H](CO)[C@@H](O)[C@H](O)[C@H]5O)[C@H]5C(C)(C)[C@@H](O[C@@H]6OC[C@@H](O)[C@H](O)[C@H]6O[C@@H]6O[C@H](CO)[C@@H](O)[C@H](O)[C@H]6O)CC[C@@]56C[C@@]46CC[C@]23C)O1 [Astragaloside VI]	6.23 ± 2.82	7.72 ± 0.53	
CC(=O)OC1C(O)COC(OC2CCC34CC35CCC3(C)C(C6(C)CCC(C(C)(C)O)O6)C(O)CC3(C)C5CC(OC3OCC(O)C(O)C3O)C4C2(C)C)C1OC(C)=O (stereo not drawn) [Astrasieversianin II]	8.01 ± 0.48	13.6 ± 1.79	
CC(C)(O)C1CCC(C)(C2C(O)CC3(C)C4CC(OC5OCC(O)C(O)C5O)C5C(C)(C)C(OC6OCC(O)C(O)C6O)CCC56CC46CCC23C)O1 (stereo not drawn) [Astrasieversianin X]	8.6 ± 0.91	10.1 ± 2.34	
CC(CCC(O)C(C)(C)O)C1C(O)CC2(C)C3CC(OC4OC(CO)C(O)C(O)C4O)C4C(C)(C)C(OC5OCC(O)C(O)C5O)CCC45CC35CCC12C (stereo not drawn) [Cyclocanthoside E]	2.18 ± 1.81	5.35 ± 1.82	
CC(CCC(O)C(C)(C)O)C1C(O)CC2(C)C3CC(OC4OC(CO)C(O)C(O)C4O)C4C(C)(C)C(OC5OCC(O)C(O)C5OC5OC(CO)C(O)C(O)C5O)CCC45CC35CCC12C (stereo not drawn) [Cyclocanthoside G]	6.85 ± 0.72	8.23 ± 0.24	
C[C@@H]1CC[C@@]2(OC1)O[C@H]1C[C@H]3[C@@H]4CC=C5C[C@@H](O)CC[C@]5(C)[C@H]4CC[C@]3(C)[C@H]1[C@@H]2C [Diosgenin]	4.31 ± 0.37	8.12 ± 2.64	IC50 AChE [3]: 103.60 µg/mL (≈ 250 µM)
COc1ccc2c3c1O[C@H]1C[C@@H](O)C=C[C@@]31CCN(C)C2 [Galanthamine HBr, reference compound]		60.3 ± 1.36	
C[C@@H]1CC[C@@]2(OC1)O[C@H]1C[C@H]3[C@@H]4CC[C@H]5C[C@@H](O)CC[C@]5(C)[C@H]4CC(=O)[C@]3(C)[C@H]1[C@@H]2C [Hecogenin]	25	17.3 ± 1.84	ChE Inhibition (Inhibition % ± S.D. at 100 µg/mL) AChE (AChE [1]; [6]): 25.36 ± 1.11%
COC(=O)C1=COC(OC2OC(CO)C(O)C(O)C2O)C2C(C)(O)CCC12O (stereo not drawn) [Ipolamide]	< 0		inhibition at 100 µg/mL (BChE [2]; [6]): 12.4 ± 2.28%
COc1cc2nc3occc3c(OC)c2cc1OC [Kokusaginine]	62.4 ± 3.2		IC50 (AChE [1]): 271 µM; IC50 (BChE [2]): 237 µM; inhibition at 100 µg/mL (BChE [2]; [6]): 67.4 ± 3.1%
COC(=O)C1=COC(OC2OC(CO)C(O)C(O)C2O)C2C1(O)CC(O)C2(C)O (stereo not drawn) [Lamiide]	< 0		inhibition at 100 µg/mL (BChE [2]; [6]): 8.77 ± 0.92%
O=C(O)C1OC(Oc2cc(O)c3c(=O)cc(-c4ccc(O)c(O)c4)oc3c2)C(O)C(O)C1O (stereo not drawn) [Luteolin-7-O-glucuronide]	< 0	< 0	
CC(=O)OC1C(OC(CCC(C)C2CCC3(C)C4C(O)CC5C(C)(C)C(OC6OC(C)C(O)C(O)C6O)CC(O)C56CC46CCC23C)C(C)(C)O)OCC(O)C1O (stereo not drawn) [Macrophyllosaponin A]	9.69 ± 0.85	12.2 ± 1.83	
CC(CCC(OC1OCC(O)C(O)C1O)C(C)(C)O)C1CCC2(C)C3C(O)CC4C(C)(C)C(OC5OC(C)C(O)C(O)C5O)CC(O)C45CC35CCC12C (stereo not drawn) [Macrophyllosaponin B]	13.2 ± 0.92	12.2 ± 1.16	
CC(CCC(O)C(C)(C)OC1OCC(O)C(O)C1O)C1CCC2(C)C3C(O)CC4C(C)(C)C(OC5OC(C)C(O)C(O)C5O)CC(O)C45CC35CCC12C (stereo not drawn) [Macrophyllosaponin C]	12.4 ± 1.4	16.5 ± 1.57	
CC(CCC(OC1OCC(O)C(O)C1OC1OCC(O)C(O)C1O)C(C)(C)O)C1CCC2(C)C3C(O)CC4C(C)(C)C(OC5OC(C)C(O)C(O)C5O)CC(O)C45CC35CCC12C (stereo not drawn) [Macrophyllosaponin D]	4.31 ± 1.32	10.1 ± 0.78	
COC(=O)[C@@H](Cc1ccc(O)c(O)c1)OC(=O)/C=C/c1ccc(O)c(O)c1 [Methyl rosmarinate]	16.8 ± 3.84		IC50 (BChE [2]): 111 µM; inhibition at 100 µg/mL (BChE [2]; [6]): 82.74 ± 0.62%
CC1CCC2(OC1)OC1CC3C4CCC5CC(O)CCC5(C)C4CC(O)C3(C)C1C2C (stereo not drawn) [Rockogenin]		15.2 ± 2.56	inhibition at 100 µg/mL (AChE [1]): 5.29 ± 0.52%
C[C@@H]1CC[C@@]2(OC1)O[C@H]1C[C@H]3[C@@H]4CC[C@@H]5C[C@@H](O)CC[C@]5(C)[C@H]4CC[C@]3(C)[C@H]1[C@@H]2C [Smilagenin]	62.4 ± 2.44	15 ± 3.01	IC50 (AChE [1]): 104 µM; IC50 (AChE [4]; read-out: IC50 AChE, compound isolated from Asparagus racemosus): 9.9 µM; IC50 (BChE [5]; compound isolated from Asparagus racemosus): 5.4 µM
C[C@@H]1CC[C@@]2(OC1)O[C@H]1C[C@H]3[C@@H]4CC[C@H]5C[C@@H](O)CC[C@]5(C)[C@H]4CC[C@]3(C)[C@H]1[C@@H]2C [Tigogenin]	17	22.2 ± 3.09	ChE Inhibition (Inhibition % ± S.D. at 100 µg/mL) AChE (AChE [1]; [6]): 17.09 ± 0.69%
C[C@@H]1O[C@@H](O[C@@H]2[C@@H](O)[C@H](OCCc3ccc(O)c(O)c3)O[C@H](CO)[C@H]2OC(=O)/C=C/c2ccc(O)c(O)c2)[C@H](O)[C@H](O)[C@H]1O [Verbascoside]	8.12 ± 1.49	22.2 ± 2.54	IC50 (AChE [4]; Calceolaria talcana study, read-out: IC50 AChE (converted)): 304 µM; AChE inhibition (AChE [4]; at 100 μg/mL, from Pseuderanthemum carruthersii): < 50%; ChE inhibition (AChE) (AChE [4]; [7]): below 30%; inhibition against AChE (AChE [4]; isolated from Olea europea L.): no inhibition; IC50 (BChE [5]; Calceolaria talcana study): 170 µM; ChE inhibition (BChE) (BChE [5]; [7]): below 30%; inhibition against BChE (BChE [5]; isolated from Olea europea L.): no inhibition
Forsythoside B			ChE Inhibition (Inhibition % ± S.D. at 100 µg/mL) BChE (BChE [2]; [6]): 14.80 ± 2.31%; AChE inhibition (AChE [4]; Calceolaria talcana study): no AChE inhibition
tannic acid [reference compound]			IC50 AChE [3]: 0.10 µg/mL
